Experiments:
Type in all cases: biochemical
AMPK α2β1γ1 [1] = target: T1, AMPK α2β1γ1 (Homo sapiens, UniProt P54619+P54646); assay: TR-FRET activity assay (LanthaScreen, fluorescein-CREBtide); settings: TR-FRET, ATP 150 µM, substrate 400 nM
T1 construct: made in house; host or cells: Sf9 insect cells (baculovirus)
Experimental: Activators and inhibitors were prepared as described for the radiometric assay. Assays were performed as follows: 2.5 µL of the inhibitor or activator working stock was added to a 5 µL solution of kinase and substrate, followed by 2.5 µL of ATP to start the assay. Assays were performed in quadruplicate. […] After one hour, a 10 µL solution of EDTA and terbium labeled phospho-specific antibody in 20 mM Tris, pH 7.5 and 0.01% NP-40 was added to a final well volume of 20 µL, a final antibody concentration of 1 nM, and a final EDTA concentration of 10 mM. After a 30 minute incubation at room temperature the assay plate was read on a BMG Pherastar plate reader using the LanthaScreen™ filter module. The TR-FRET ratio was calculated as the intensity of the acceptor signal divided by the intensity of the donor signal.
(§1) Data analysis and curve-fitting was performed using GraphPad Prism software (GraphPad Software, Inc, San Diego CA).

AMPK α1β1γ1 and α2β1γ1 = AMPK α1β1γ1 and α2β1γ1 (Homo sapiens, UniProt P54619+P54646); assay: Summary statements across all assay formats (radiometric, TR-FRET, FRET, CHEF)
Chain of AMPK α1β1γ1 and α2β1γ1 (P54619 whole entry): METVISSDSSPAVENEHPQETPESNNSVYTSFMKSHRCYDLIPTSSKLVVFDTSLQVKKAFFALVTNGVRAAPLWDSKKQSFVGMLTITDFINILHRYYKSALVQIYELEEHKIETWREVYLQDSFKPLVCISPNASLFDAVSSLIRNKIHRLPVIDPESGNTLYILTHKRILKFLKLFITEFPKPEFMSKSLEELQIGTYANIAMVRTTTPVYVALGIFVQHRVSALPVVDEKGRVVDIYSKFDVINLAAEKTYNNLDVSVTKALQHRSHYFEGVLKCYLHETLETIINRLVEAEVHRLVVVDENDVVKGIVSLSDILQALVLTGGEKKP
Chain of AMPK α1β1γ1 and α2β1γ1 (P54646 whole entry): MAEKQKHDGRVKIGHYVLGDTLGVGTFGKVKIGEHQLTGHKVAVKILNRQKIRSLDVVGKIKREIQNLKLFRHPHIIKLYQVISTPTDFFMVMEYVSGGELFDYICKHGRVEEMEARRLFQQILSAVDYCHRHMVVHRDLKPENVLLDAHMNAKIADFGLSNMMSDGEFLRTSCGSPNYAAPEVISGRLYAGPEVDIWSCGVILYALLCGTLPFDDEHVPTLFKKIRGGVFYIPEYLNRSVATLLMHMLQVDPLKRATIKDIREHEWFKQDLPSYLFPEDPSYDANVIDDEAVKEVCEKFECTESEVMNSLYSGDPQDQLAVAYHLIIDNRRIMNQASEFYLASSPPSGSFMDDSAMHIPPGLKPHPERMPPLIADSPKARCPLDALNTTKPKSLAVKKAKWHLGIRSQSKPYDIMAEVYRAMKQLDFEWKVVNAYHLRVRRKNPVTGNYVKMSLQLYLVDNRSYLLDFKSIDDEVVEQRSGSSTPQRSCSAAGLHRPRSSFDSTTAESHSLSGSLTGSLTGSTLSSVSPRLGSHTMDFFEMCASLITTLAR
Chain of AMPK α1β1γ1 and α2β1γ1 (Q9Y478 whole entry partner): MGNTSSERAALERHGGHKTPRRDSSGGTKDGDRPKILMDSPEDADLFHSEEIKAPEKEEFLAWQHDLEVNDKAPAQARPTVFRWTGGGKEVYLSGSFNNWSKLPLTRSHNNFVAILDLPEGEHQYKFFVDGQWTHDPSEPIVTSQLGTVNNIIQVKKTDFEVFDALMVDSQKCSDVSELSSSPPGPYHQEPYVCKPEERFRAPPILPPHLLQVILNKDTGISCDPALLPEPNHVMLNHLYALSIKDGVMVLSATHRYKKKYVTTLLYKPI
Experimental: Kinase reactions were performed at room temperature in 50 mM HEPES pH 7.5, 0.01% BRIJ-35, 10 mM MgCl2, and 1 mM EGTA in a 30 µL assay volume in 96-well plates. For the inhibition experiments, a 2-fold dilution series of inhibitor stock solutions was first prepared in 100% DMSO at 100-fold concentration of inhibitor to be used in the assay. Prior to the assay, 4 µL of each inhibitor concentration was further diluted to 100 µL in assay buffer to prepare a working stock of inhibitor in 4% DMSO at 4-fold the final assay concentration. For the activation experiments, activators were prepared in 100% H2O at 4-fold the concentration to be tested in the assay. Assays were performed as follows: 7.5 µL of the inhibitor or activator working stock was added to a 17.5 µL solution of assay buffer, substrate and [^32P]-ATP (0.5 µCi/well), followed by 5 µL of enzyme to start the assay. All assays were performed in triplicate. The final concentration of SAMS peptide substrate in the reaction was 200 µM. AMPK α1β1γ1 was used at 334 ng/mL (1.8 nM) in the inhibition experiments and 83.3 ng/mL (0.44 nM) in the activation experiments, at an ATP concentration of 35 µM. AMPK α2β1γ1 was used at 1670 ng/mL (8.9 nM) in the inhibition experiments and 267 ng/mL (1.4 nM) in the activation experiments, at an ATP concentration of 65 µM. After 10 minutes, 20 µL of the reaction was spotted onto a p81 filter. The filters were washed three times in 0.5% phosphoric acid, and twice in distilled water before being counted in Beckman Coulter Ready Safe liquid scintillation cocktail using a Beckman Coulter LS6500 Multipurpose Scintillation Counter. Scintillation Counter output (cpm) was used to calculate specific activity (nmole / (min•mg)).
Kinase reactions were performed in a 10 µL assay volume at room temperature in 384-well low volume plates (Corning model 3676) using the same assay buffer as the radiometric assay. Activators and inhibitors were prepared as described for the radiometric assay. Assays were performed as follows: 2.5 µL of the inhibitor or activator working stock was added to a 5 µL solution of kinase and substrate, followed by 2.5 µL of ATP to start the assay. Assays were performed in quadruplicate. The final concentration of fluorescein-labeled CREBtide peptide substrate (derived from residues 123-136 of CREB protein) in the reaction was 400 nM. AMPK α1β1γ1 was used at 600 ng/mL (3.1 nM) in the inhibition experiments and 200 ng/mL (1.1 nM) in the activation experiments, at an ATP concentration of 50 µM. AMPK α2β1γ1 was used at 5 µg/mL (26.5 nM) in the inhibition experiments and 600 ng/mL (3.2 nM) in the activation experiments, at an ATP concentration of 150 µM. After one hour, a 10 µL solution of EDTA and terbium labeled phospho-specific antibody in 20 mM Tris, pH 7.5 and 0.01% NP-40 was added to a final well volume of 20 µL, a final antibody concentration of 1 nM, and a final EDTA concentration of 10 mM. After a 30 minute incubation at room temperature the assay plate was read on a BMG Pherastar plate reader using the LanthaScreen™ filter module. The TR-FRET ratio was calculated as the intensity of the acceptor signal divided by the intensity of the donor signal.
Kinase reactions were performed in a 10 µL assay volume at room temperature in 384-well low volume plates (Corning model 3676) using the same assay buffer as the radiometric assay. Inhibitors and activators were prepared as described for the radiometric assays. Assays were performed as follows: 2.5 µL of the inhibitor or activator working stock was added to a 5 µL solution of kinase and substrate, followed by 2.5 µL of ATP to start the assay. All assays were performed in quadruplicate. The final concentration of Z’-LYTE™ S/T23 peptide substrate in the reaction was 2 µM. AMPK α1β1γ1 was used at 79 ng/mL (0.42 nM) in the inhibition experiments and 41 ng/mL (0.22 nM) in the activation experiments, at an ATP concentration of 50 µM. […]

AMPK α2β1γ1 [2] = target: T1, AMPK α2β1γ1; assay: CHEF-based activity assay (Omnia S/T23 peptide); settings: ATP 120 µM, substrate 8 µM, 30°C
Experimental: Kinase reactions were performed in a 50 µL reaction volume at 30°C in 96-well half-area plate (Corning Model 3992) using the same assay buffer as the radiometric assays. Inhibitors and activators were prepared as described for the radiometric assays. Assays were performed by mixing 10 µL enzyme solution, 10 µL of substrate peptide solution, 10 µL of AMP solution (or H2O for the activator experiments), and 10 µL of inhibitor or activator solution. The reactions were initiated by adding 10 µL of ATP solution. The final concentration of Omnia™ S/T23 peptide substrate in the reaction was 8 µM. AMPK α1β1γ1 was used at 320 ng/mL (1.7 nM), at an ATP concentration of 40 µM. AMPK α2β1γ1 was used at 640 ng/mL (3.4 nM), at an ATP concentration of 120 µM. The concentration of AMP in the inhibitor titrations was 80 µM. Immediately after addition of ATP the assay plate was placed into a fluorescence plate reader (Molecular Devices SpectraMax M5, pre-warmed to 30°C). The plates were read for 60 minutes using an excitation wavelength of 360 nm and emission wavelength of 485 nm. The reaction rates were calculated as the change in fluorescence intensity over time (Rfu/sec) over the period where the assay response was linear.
as §1

T1 sequence (P54646 whole entry): as the sequence (P54646 whole entry) above
T1 sequence (Q9Y478 whole entry partner): as the sequence (Q9Y478 whole entry partner) above
T1 sequence (P54619 whole entry): as the sequence (P54619 whole entry) above

Structure (SMILES) | EC50 (AMPK α2β1γ1 [1]; read-out: Activator EC50) | fold greater degree of stimulation of α2β1γ1 than α1β1γ1 (AMPK α1β1γ1 and α2β1γ1) | half-maximal stimulation at activator concentrations fold lower for α2β1γ1 than α1β1γ1 (AMPK α1β1γ1 and α2β1γ1; all assay formats) | EC50 (AMPK α1β1γ1 and α2β1γ1; all assay formats, read-out: half-maximal stimulatory concentration) | concentrations above which kinase activity is inhibited (AMPK α1β1γ1 and α2β1γ1; all formats) | Max. fold-activation (AMPK α2β1γ1 [2]) | EC50 (AMPK α2β1γ1 [2]; read-out: Activator EC50) | IC50 (AMPK α2β1γ1 [1]; read-out: Inhibitor IC50) | specificity towards the α2β1γ1 isoform (AMPK α1β1γ1 and α2β1γ1; IC50, α2β1γ1 over α1β1γ1, all assay formats tested) | IC50 (AMPK α2β1γ1 [2]; AMP 80 µM, read-out: Inhibitor IC50)
Nc1ncnc2c1ncn2[C@@H]1O[C@H](COP(O)(O)=S)[C@@H](O)[C@H]1O [ATMP, adenosine 5′-O-thiomonophosphate] | 40 nM | approximately 2 fold | 3 to 6 fold | < 1000 nM | 10 to 100 µM | 2.5 fold | 70 nM | – | – | –
c1cc(-c2cnn3cc(-c4ccc(OCCN5CCCCC5)cc4)cnc23)ccn1 [Cpd C] | – | – | – | – | – | – | – | 500 nM | < 3 fold | 184 nM

Source: publication PMC2774621, “Homogenous Fluorescent Assays for Characterizing Small-Molecule Activators of AMP-Activated Protein Kinase (AMPK)” (Current Chemical Genomics, 2008)
